Assay results taken from patent US5972894A, “Peptides having potassium channel opener activity” (Cytran, Inc., priority 1997, dated 1999).
Residues, ends and D or L forms follow the SMILES beside them.

What was measured:
Rat Portal Vein = assay: KCl-induced tonic contraction of rat portal vein smooth muscle specimens; format: cell-based
Procedure: Spontaneous contraction curve values for each SMS were recorded by making repetitive measurements of the spontaneous contractile activity of each sample at 2, 5, 10, and 15 minutes after the addition of the test or reference substance to each SMS/organ bath. Next, 0.5 ml of a solution of 600 mM solution of KCl in […] in the organ bath until a final concentration of 60 mM KCl was achieved. The contractile activity of each SMS was then measured for 5 minutes.

rats = assay: Arterial blood pressure in anesthetized rats; format: in vivo
Procedure: White random-bred male rats weighing approximately 200 g were employed for this study. Each dose of each respective test or control substance was administered to a group of five rats. GE and VT were employed as test substances and were administered intravenously at doses of 0.01, 0.1, 1.0, and 10.0 mg/kg. Physiological saline (0.2 ml) served as the negative control substance. The ganglionic blocking agent, pentamine, served as the positive control substance and was tested at a dose of 5 mg/kg. Following administration of the test substance, positive control substance, or negative control substance, the arterial blood pressure of each animal was monitored.
Prior to administration of the test or control substance, each animal was anesthetized with Chloralose and then both its carotid artery and jugular vein were catheterized. The carotid catheter was connected to an electronic manometer attached to a computer recorder through an analog-to-digital converter. The mean basal level of the arterial blood pressure was determined as follows: For a period of 30 seconds, the digital signal pertaining to the arterial blood pressure was recorded at 1-second intervals. The mean value of these thirty individual measurements was then determined and recorded.
After determining the mean basal level of the arterial blood pressure, a particular dose of the test or control substance was administered in a volume of 0.2 ml of physiological saline to an animal through the jugular venous catheter. Measurements of the arterial blood pressure were then taken during the next 1.5 hours as follows: (i) during the first 5 minutes, the arterial blood pressure was being monitored continuously and mean values were calculated electronically and recorded at each of the ten different 30-second intervals (i.e., 30th second, 60th second, etc.); (ii) thereafter, mean values of the arterial blood pressure were calculated at the first seconds of 10th minute, 15th minute, 30th minute, 45th minute, 60th minute, 75th minute, and 90th minute after administration of the respective test or control substance.

With `NCC(=O)N[C@@H](CCC(=O)O)C(=O)O` [GE, L-Glycyl-L-Glutamic acid] (H-Gly-Glu-OH) the “Area Under Curve of KCl-Induced Contraction (% of control)” value (Rat Portal Vein; 10^-6 g/ml, 60 mM KCl) was 90.26%, the “effect on tonic contraction induced by KCl” value (Rat Portal Vein; venous smooth muscle specimens) was “neither GE nor VT effected the character of the tonic contraction” and the “Arterial Blood Pressure (Basal Level = 100.00)” value (rats; 0.01 mg/kg i.v., 1 min) was 101.02%. The “Arterial Blood Pressure (Basal Level = 100.00)” value (rats; 0.01 mg/kg i.v., 2 min) was 102.72%, the “Arterial Blood Pressure (Basal Level = 100.00)” value (rats; 0.01 mg/kg i.v., 3 min) was 103.88% and the “Arterial Blood Pressure (Basal Level = 100.00)” value (rats; 0.01 mg/kg i.v., 4 min) was 99.77%. For the same compound, the “Arterial Blood Pressure (Basal Level = 100.00)” value (rats; 0.01 mg/kg i.v., 5 min) was 102.90%, the “Arterial Blood Pressure (Basal Level = 100.00)” value (rats; 0.01 mg/kg i.v., 10 min) was 96.17% and the “Arterial Blood Pressure (Basal Level = 100.00)” value (rats; 0.01 mg/kg i.v., 15 min) was 97.01%. For the same compound, the “Arterial Blood Pressure (Basal Level = 100.00)” value (rats; 0.01 mg/kg i.v., 30 min) was 98.26%, the “Arterial Blood Pressure (Basal Level = 100.00)” value (rats; 0.01 mg/kg i.v., 45 min) was 99.01% and the “Arterial Blood Pressure (Basal Level = 100.00)” value (rats; 0.01 mg/kg i.v., 60 min) was 93.29%. For the same compound, the “Arterial Blood Pressure (Basal Level = 100.00)” value (rats; 0.01 mg/kg i.v., 75 min) was 94.15%, the “Arterial Blood Pressure (Basal Level = 100.00)” value (rats; 0.01 mg/kg i.v., 90 min) was 102.09% and the “Arterial Blood Pressure (Basal Level = 100.00)” value (rats; 0.1 mg/kg i.v., 1 min) was 96.00%. The “Arterial Blood Pressure (Basal Level = 100.00)” value (rats; 0.1 mg/kg i.v., 2 min) was 96.60%, the “Arterial Blood Pressure (Basal Level = 100.00)” value (rats; 0.1 mg/kg i.v., 3 min) was 97.66% and the “Arterial Blood Pressure (Basal Level = 100.00)” value (rats; 0.1 mg/kg i.v., 4 min) was 97.32%. The “Arterial Blood Pressure (Basal Level = 100.00)” value (rats; 0.1 mg/kg i.v., 5 min) was 98.31%, the “Arterial Blood Pressure (Basal Level = 100.00)” value (rats; 0.1 mg/kg i.v., 10 min) was 96.04% and the “Arterial Blood Pressure (Basal Level = 100.00)” value (rats; 0.1 mg/kg i.v., 15 min) was 94.98%. The “Arterial Blood Pressure (Basal Level = 100.00)” value (rats; 0.1 mg/kg i.v., 30 min) was 93.56%, the “Arterial Blood Pressure (Basal Level = 100.00)” value (rats; 0.1 mg/kg i.v., 45 min) was 80.15% and the “Arterial Blood Pressure (Basal Level = 100.00)” value (rats; 0.1 mg/kg i.v., 60 min) was 83.03%. For the same compound, the “Arterial Blood Pressure (Basal Level = 100.00)” value (rats; 0.1 mg/kg i.v., 75 min) was 83.37%, the “Arterial Blood Pressure (Basal Level = 100.00)” value (rats; 0.1 mg/kg i.v., 90 min) was 84.50% and the “Arterial Blood Pressure (Basal Level = 100.00)” value (rats; 1.0 mg/kg i.v., 1 min) was 70.32%. The “Arterial Blood Pressure (Basal Level = 100.00)” value (rats; 1.0 mg/kg i.v., 2 min) was 84.63%, the “Arterial Blood Pressure (Basal Level = 100.00)” value (rats; 1.0 mg/kg i.v., 3 min) was 90.73% and the “Arterial Blood Pressure (Basal Level = 100.00)” value (rats; 1.0 mg/kg i.v., 4 min) was 93.72%. For the same compound, the “Arterial Blood Pressure (Basal Level = 100.00)” value (rats; 1.0 mg/kg i.v., 5 min) was 98.11%, the “Arterial Blood Pressure (Basal Level = 100.00)” value (rats; 1.0 mg/kg i.v., 10 min) was 94.67% and the “Arterial Blood Pressure (Basal Level = 100.00)” value (rats; 1.0 mg/kg i.v., 15 min) was 92.70%. For the same compound, the “Arterial Blood Pressure (Basal Level = 100.00)” value (rats; 1.0 mg/kg i.v., 30 min) was 90.58%, the “Arterial Blood Pressure (Basal Level = 100.00)” value (rats; 1.0 mg/kg i.v., 45 min) was 88.43% and the “Arterial Blood Pressure (Basal Level = 100.00)” value (rats; 1.0 mg/kg i.v., 60 min) was 88.85%. For the same compound, the “Arterial Blood Pressure (Basal Level = 100.00)” value (rats; 1.0 mg/kg i.v., 75 min) was 90.07%, the “Arterial Blood Pressure (Basal Level = 100.00)” value (rats; 1.0 mg/kg i.v., 90 min) was 89.82% and the “Arterial Blood Pressure (Basal Level = 100.00)” value (rats; 10.0 mg/kg i.v., 1 min) was 94.68%. The “Arterial Blood Pressure (Basal Level = 100.00)” value (rats; 10.0 mg/kg i.v., 2 min) was 100.17%, the “Arterial Blood Pressure (Basal Level = 100.00)” value (rats; 10.0 mg/kg i.v., 3 min) was 101.63% and the “Arterial Blood Pressure (Basal Level = 100.00)” value (rats; 10.0 mg/kg i.v., 4 min) was 101.22%. The “Arterial Blood Pressure (Basal Level = 100.00)” value (rats; 10.0 mg/kg i.v., 5 min) was 100.20%, the “Arterial Blood Pressure (Basal Level = 100.00)” value (rats; 10.0 mg/kg i.v., 10 min) was 95.61% and the “Arterial Blood Pressure (Basal Level = 100.00)” value (rats; 10.0 mg/kg i.v., 15 min) was 91.27%. The “Arterial Blood Pressure (Basal Level = 100.00)” value (rats; 10.0 mg/kg i.v., 30 min) was 88.24%, the “Arterial Blood Pressure (Basal Level = 100.00)” value (rats; 10.0 mg/kg i.v., 45 min) was 89.56% and the “Arterial Blood Pressure (Basal Level = 100.00)” value (rats; 10.0 mg/kg i.v., 60 min) was 85.99%. For the same compound, the “Arterial Blood Pressure (Basal Level = 100.00)” value (rats; 10.0 mg/kg i.v., 75 min) was 87.12%, the “Arterial Blood Pressure (Basal Level = 100.00)” value (rats; 10.0 mg/kg i.v., 90 min) was 78.69% and the “effect on mean arterial blood pressure” value (rats; after about 60 to 90 minutes) was “moderate, but delayed, decrease in the mean arterial blood pressure”.
